The values that follow come from patent US8791102B2, “Acetanilide sphingosine-1-phosphate receptor antagonists” (Exelixis, Inc., priority 2008, dated 2014).

Structures are written as SMILES. pIC50: −log10 of the molar value. A value given as a limit tells only on which side of the number the result lay.

The assay deals with T1, human S1P1 receptors (Homo sapiens, UniProt P21453).
T1 construct: host or cells: HEK293
T1 sequence (P21453 whole entry): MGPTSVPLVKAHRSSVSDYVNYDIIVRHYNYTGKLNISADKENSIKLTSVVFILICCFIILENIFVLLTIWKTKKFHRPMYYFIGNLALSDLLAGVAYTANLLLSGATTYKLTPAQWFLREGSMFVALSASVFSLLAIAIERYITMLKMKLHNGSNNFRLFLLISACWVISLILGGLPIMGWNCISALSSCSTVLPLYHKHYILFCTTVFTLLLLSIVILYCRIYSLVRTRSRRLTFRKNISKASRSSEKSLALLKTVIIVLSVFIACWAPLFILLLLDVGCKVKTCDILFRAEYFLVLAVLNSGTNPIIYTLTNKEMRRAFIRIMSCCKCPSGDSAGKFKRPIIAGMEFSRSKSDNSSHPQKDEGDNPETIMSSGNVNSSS
Kind of assay: S1P1R antagonist assay (fluorescent membrane potential dye, cAMP readout). In kind it is cell-based. To be noted: HEK293 cells expressing human S1P1 receptors and CNG channel; 500 nM NECA; S1P1R agonist 10 nM; 90 minutes; read-out: EC50 or IC50 value. The text has this:
The S1P1R antagonist assay is a fluorescent membrane potential dye measurement assay, indicative of intracellular cAMP changes due to G protein-coupled receptor activation. HEK293 cells engineered to express human S1P1 receptors and a cyclic nucleotide-gated (CNG) channel are obtained from BD Biosciences, 80300-250. The CNG channels are activated by elevated levels of cAMP, resulting in ion flux and cell membrane depolarization. Membrane depolarization is detected with a membrane potential dye. Stimulation of the cells with 5′-(N-ethylcarboxamido)adenosine (NECA), an A2b receptor agonist (Sigma, E2387), elicits an A2bR-dependent increase in cAMP.
Subsequent exposure of the cells to a S1P1R agonist suppresses the NECA induced increase in cAMP through S1P1R-specific signaling by inhibiting adenylyl cyclase and the formation of cAMP from ATP. The degree to which a test compound overcomes the S1P1R agonist suppression of the NECA induced increase in cAMP is a measure of S1P1R antagonist activity. Antagonist activity is quantified as the IC50 (i.e., the concentration needed to elicited one-half of the maximum response of the test compound) and/or as the EC50 (i.e., the concentration needed to elicited one-half of the NECA induced stimulation).
Day 1: Freshly thawed cells were plated into 384-well plates (Corning, 3683) at a density of 14,000 cells/well in 20 μL, complete media and incubated for 16 hours at 37° C., 5% CO2 and 99% relative humidity. Complete media included Dulbecco's modified Eagle's medium (Invitrogen, 11965-092), 10% Fetal bovine serum (Hyclone, SH30071.03), 250 μg/mL geneticin (Invitrogen, 10131-027), and 1 μg/mL Puromycin (Fluka, 82595).
Day 2: Membrane potential dye (20 μL, BD Biosciences, 341833) was added to each well and the plates were incubated for 2.5 hours at ambient temperature. Test compounds (20 μL) were added to the wells at various concentrations (≦10 μM, 1 to 3 dilutions) in a NECA base solution and incubated for 90 minutes in the presence of the S1P1R agonist {4-((4-phenyl-5-trifluoromethyl-2-thienyl)methoxy)benzyl}-3-azetidinecarboxylic acid (10 nM). The NECA-base solution contained Dulbecco's phosphate-buffered saline (Invitrogen, 14190-136), 2.5% DMSO (Fluka, 41648), 25 μM Ro 20-1724 (Sigma, B8279), and 500 nM NECA).
Assay plates were read with a PerkinElmer EnVision reader (Excitation 350 nm, Emission 590 nm) at time T=0 minutes, before compound addition and at time T=90 minutes. The signal was calculated as the ratio T90/T0. Data was analyzed in ActivityBase XE and graphs showing log of compound concentration (X-axis) vs. % activity (Y-axis) were generated for IC50 determinations. Percent activity was calculated with the following formula: (Signal−Agonist Control Signal)/(NECA Control Signal−Agonist Control Signal)×100.
The term pIC50 denotes −log10 of the IC50, conventionally taken in molar units. In the case of `O=C(CN1CCSC1)N[C@@H](COCc1ccccc1)C(=O)Nc1ccc(Oc2ccc(F)cc2)cc1` [Compound 235, (S)-3-(benzyloxy)-N-(4-(4-fluorophenoxy)phenyl)-2-(2-(thiazolidin-3-yl)acetamido)propanamide], the negative-log IC50 (pIC50) was 6.00 to 6.52.

For `O=C(Nc1ccc(Oc2ccc(F)cc2)cc1)[C@@H]1C[C@@H](Cc2ccccc2)CN1C(=O)C1CCOC1` (stereo partly drawn) [Compound 36, (2S,4R)-4-benzyl-N-(4-(4-fluorophenoxy)phenyl)-1-(tetrahydrofuran-3-carbonyl)pyrrolidine-2-carboxamide], the negative-log IC50 (pIC50) was at least 6.52.

In the case of `O=C(NC(COCc1ccccc1)C(=O)Nc1ccc(Oc2ccccc2)cc1)C1CC(=O)N(Cc2ccc(Cl)cc2)C1` (stereo not shown) [Compound 29, N-(3-(benzyloxy)-1-oxo-1-(4-phenoxyphenylamino)propan-2-yl)-1-(4-chlorobenzyl)-5-oxopyrrolidine-3-carboxamide], the pIC50 is below 6.00.

With `O=C(CCC(=O)C1CC1)NC(COCc1ccccc1)C(=O)Nc1ccc(Oc2ccccc2)cc1` (stereo not shown) [Compound 186, N-(3-(benzyloxy)-1-oxo-1-(4-phenoxyphenylamino)propan-2-yl)-4-cyclopropyl-4-oxobutanamide], the pIC50 was 6.00 to 6.52.

As for `O=C(Nc1ccc(Oc2ccc(F)cc2)cc1)[C@@H]1C[C@H](Cc2ccc(F)cc2)CN1C(=O)Cn1cncn1` [Compound 76, (2S,4S)-1-(2-(1H-1,2,4-triazol-1-yl)acetyl)-4-(4-fluorobenzyl)-N-(4-(4-fluorophenoxy)phenyl)pyrrolidine-2-carboxamide], the pIC50 was at least 6.52.

For the compound `O=C(Cc1cnc[nH]1)N[C@@H](COCc1ccccc1)C(=O)Nc1ccc(Cc2ccccc2)cc1` [Compound 200, (S)-2-(2-(1H-imidazol-4-yl)acetamido)-3-(benzyloxy)-N-(4-benzylphenyl)propanamide], the pIC50 is at least 6.52.

In the case of `O=C(CC[N+](=O)[O-])N[C@@H](COCc1ccccc1)C(=O)Nc1ccc(Oc2ccc(F)cc2)cc1` [Compound 245, (S)-3-(benzyloxy)-N-(4-(4-fluorophenoxy)phenyl)-2-(3-nitropropanamido)propanamide], the negative-log IC50 (pIC50) is at least 6.52.

In the case of `O=C(NC(COCc1ccccc1)C(=O)Nc1ccc(Oc2ccccc2)cc1)c1cccc(Cl)c1` (stereo not shown) [Compound 275, 3-chloro-N-(2-oxo-1-{[(phenylmethyl)oxy]methyl}-2-{[4-(phenyloxy)phenyl]amino}ethyl)benzamide], the negative logarithm of the IC50 (pIC50) was below 6.00.

With `O=C(Nc1ccc(Oc2ccc(F)cc2)cc1)[C@@H]1C[C@@H](Cc2ccc(Cl)cc2)CN1C(=O)Cn1nccn1` [Compound 227, (2S,4R)-1-(2-(2H-1,2,3-triazol-2-yl)acetyl)-4-(4-chlorobenzyl)-N-(4-(4-fluorophenoxy)phenyl)pyrrolidine-2-carboxamide], the pIC50 was at least 6.52.

With `O=C(NC(COCc1ccccc1)C(=O)Nc1ccc(Oc2ccccc2)cc1)c1nc2ccccc2nc1O` (stereo not shown) [Compound 395, 3-hydroxy-N-(2-oxo-1-{[(phenylmethyl)oxy]methyl}-2-{[4-(phenyloxy)phenyl]amino}ethyl)quinoxaline-2-carboxamide], the negative logarithm of the IC50 (pIC50) was below 6.00.

Consider `Cc1[nH]c2ccccc2c1CC(=O)N1C[C@H](Cc2ccccc2)C[C@H]1C(=O)Nc1ccc(Oc2ccc(F)cc2)cc1` [Compound 37, (2S,4R)-4-benzyl-N-(4-(4-fluorophenoxy)phenyl)-1-(2-(2-methyl-1H-indol-3-yl)acetyl)pyrrolidine-2-carboxamide], for which the pIC50 was at least 6.52.

For `O=C(CN1CCOCC1)N[C@@H](COCc1ccc(F)cc1)C(=O)Nc1ccc(Oc2ccc(F)cc2)cc1` [Compound 210, (S)-3-(4-fluorobenzyloxy)-N-(4-(4-fluorophenoxy)phenyl)-2-(2-morpholinoacetamido)propanamide], the pIC50 was at least 6.52.

For the compound `O=C(Nc1ccc(Oc2ccc(F)cc2)cc1)[C@@H]1C[C@@H](Cc2ccccc2)CN1C(=O)Cc1c(F)ccc(F)c1F` [Compound 84, (2S,4R)-4-benzyl-N-(4-(4-fluorophenoxy)phenyl)-1-(2-(2,3,6-trifluorophenyl)acetyl)pyrrolidine-2-carboxamide], the pIC50 was at least 6.52.

`O=C(Cc1cnc[nH]1)N[C@@H](COCc1ccccc1)C(=O)Nc1ccc(Oc2ccc(Cl)cc2)cc1` [Compound 145, (S)-2-(2-(1H-imidazol-5-yl)acetamido)-3-benzyloxy-N-(4-(4-chlorophenoxy)phenyl)propanamide]: the pIC50 was at least 6.52.

For the compound `COc1ccc(OC)c(C(=O)NC(COCc2ccccc2)C(=O)Nc2ccc(Oc3ccccc3)cc2)c1` (stereo not shown) [Compound 332, 2,5-bis(methyloxy)-N-(2-oxo-1-{[(phenylmethyl)oxy]methyl}-2-{[4-(phenyloxy)phenyl]amino}ethyl)benzamide], the pIC50 was 6.00 to 6.52.

As to `CCN(CC)C(=O)C1CCCN(CC(=O)N[C@@H](COCc2ccccc2)C(=O)Nc2ccc(Oc3ccc(F)cc3)cc2)C1` (stereo partly drawn) [Compound 231, 1-(2-((S)-3-(benzyloxy)-1-(4-(4-fluorophenoxy)phenylamino)-1-oxopropan-2-ylamino)-2-oxoethyl)-N,N-diethylpiperidine-3-carboxamide], the negative logarithm of the IC50 (pIC50) is 6.00 to 6.52.

`O=C(NC(COCc1ccccc1)C(=O)Nc1ccc(Oc2ccccc2)cc1)c1cccnc1Oc1ccccc1` (stereo not shown) [Compound 290, N-(2-oxo-1-{[(phenylmethyl)oxy]methyl}-2-{[4-(phenyloxy)phenyl]amino}ethyl)-2-(phenyloxy)pyridine-3-carboxamide]: the pIC50 was below 6.00.

`O=C(CCC(=O)c1ccccc1)NC(COCc1ccccc1)C(=O)Nc1ccc(Oc2ccccc2)cc1` (stereo not shown) [Compound 349, 4-oxo-N-(2-oxo-1-{[(phenylmethyl)oxy]methyl}-2-{[4-(phenyloxy)phenyl]amino}ethyl)-4-phenylbutanamide]: the pIC50 is 6.00 to 6.52.

With `O=C(CN1CCN(c2ncccc2C(F)(F)F)CC1)N[C@@H](COCc1ccccc1)C(=O)Nc1ccc(Oc2ccc(F)cc2)cc1` [Compound 112, (S)-3-(benzyloxy)-N-(4-(4-fluorophenoxy)phenyl)-2-(2-(4-(3-(trifluoromethyl)pyridin-2-yl)piperazin-1-yl)acetamido)propanamide], the pIC50 was below 6.00.

As to `O=C(NC(COCc1ccccc1)C(=O)Nc1ccc(Oc2ccccc2)cc1)C1CCOC1` (stereo not shown) [Compound 336, N-(2-oxo-1-{[(phenylmethyl)oxy]methyl}-2-{[4-(phenyloxy)phenyl]amino}ethyl)tetrahydrofuran-3-carboxamide], the negative logarithm of the IC50 (pIC50) is at least 6.52.

As for `O=C(CN1CCSCC1)N[C@@H](COCc1ccccc1)C(=O)Nc1ccc(Oc2ccc(F)cc2)cc1` [Compound 266, (S)-3-(benzyloxy)-N-(4-(4-fluorophenoxy)phenyl)-2-(2-thiomorpholinoacetamido)propanamide], the pIC50 is 6.00 to 6.52.

On to `CSc1ncccc1C(=O)NC(COCc1ccccc1)C(=O)Nc1ccc(Oc2ccccc2)cc1` (stereo not shown) [Compound 28, N-(3-(benzyloxy)-1-oxo-1-(4-phenoxyphenylamino)propan-2-yl)-2-(methylthio)nicotinamide], for which the pIC50 was below 6.00.

As to `O=C(Nc1ccc(Oc2ccc(F)cc2)cc1)[C@@H]1C[C@@H](NCc2ccsc2)CN1C(=O)Cn1cncn1` [Compound 182, (2S,4R)-1-(2-(1H-1,2,4-triazol-1-yl)acetyl)-N-(4-(4-fluorophenoxy)phenyl)-4-(thien-3-ylmethylamino)pyrrolidine-2-carboxamide], the pIC50 is at least 6.52.

Regarding `COc1ccc([C@@H]2C[C@@H](C(=O)Nc3ccc(Oc4ccc(F)cc4)cc3)N(C(=O)Cn3cncn3)C2)cc1` [Compound 62, (2S,4S)-1-(2-(1H-1,2,4-triazol-1-yl)acetyl)-N-(4-(4-fluorophenoxy)phenyl)-4-(4-methoxyphenyl)pyrrolidine-2-carboxamide], the pIC50 was at least 6.52.

On to `O=C(Nc1ccc(Oc2ccc(F)cc2)cc1)[C@@H]1C[C@@H](Cc2ccccc2)CN1C(=O)C1CCCO1` (stereo partly drawn) [Compound 92, (2S,4R)-4-benzyl-N-(4-(4-fluorophenoxy)phenyl)-1-(tetrahydrofuran-2-carbonyl)pyrrolidine-2-carboxamide], for which the pIC50 is at least 6.52.
